Assay results as given in US20240125803A1, “NOVEL DIAGNOSTIC AND METHOD OF SCREENING THERAPEUTICS FOR FIBROTIC CONDITIONS” (BLR-Bio, LLC, priority 2022, published 2024).

Experiments:
[1] = tested on: fibrosis-related gene expression; assay: Bleomycin-induced skin fibrosis, 21 days: bulk RNAseq of skin; format: in vivo, C57BL/6J mice; settings: d21, n=2
Procedure: 6-week-old C57BL/6J mice were subjected to bleomycin treatment (subcutaneous injection 0.1 U/100 μl/mouse daily) in the presence or absence of BLR200 (intraperitoneal injection 10 μg/kg every other day) for 21 days. For a reversal of fibrosis experiment, BLR200 treatment was started at d14 of bleomycin treatment and continued until d28. Fibrosis was assessed by histological, and unbiased bulk RNAseq, real-time polymerase chain reaction and spatial transcriptomic analyses.
Unbiased cluster analysis of bulk RNAseq data was performed using the Database for Annotation, Visualization and Integrated Discovery (DAVID). Clusters relate to fibrosis with the enrichment score and #of genes greater than 1.0 and 10, respectively, were chosen. n=2.

CCN2 = molecular target: T1, CCN2 (Mus musculus, UniProt P29268); settings: Makino et al., 2017; cited from earlier work
T1 construct: FG-3019 treatment mitigated Ang II-induced fibrosis, as visualized by a reduction in skin thickness; host or cells: animals of the Ang II-induced dermal fibrosis model (endogenous protein)
T1 sequence (P29268 26-348): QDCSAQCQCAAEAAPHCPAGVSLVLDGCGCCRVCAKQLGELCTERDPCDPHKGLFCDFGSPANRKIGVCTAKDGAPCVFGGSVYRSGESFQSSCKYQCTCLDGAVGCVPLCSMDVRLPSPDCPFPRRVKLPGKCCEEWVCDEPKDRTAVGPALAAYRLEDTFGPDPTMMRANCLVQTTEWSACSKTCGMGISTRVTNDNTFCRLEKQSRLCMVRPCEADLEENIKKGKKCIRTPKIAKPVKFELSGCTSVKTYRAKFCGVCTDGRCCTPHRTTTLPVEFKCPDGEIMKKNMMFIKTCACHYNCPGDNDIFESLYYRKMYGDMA

[2] = tested on: fibrosis in diabetic nephropathy; settings: Riser et al., 2014; cited from earlier work

Bleomycin sulfate
Fold Chance, ADAM10 [1]: 3.68 Fold
Fold Chance, ADAMTS4 [1]: 4.29 Fold
Fold Chance, ADAMTS9 [1]: 4.46 Fold
Fold Chance, ADAMTS20 [1]: 11.3 Fold
Fold Chance, CDH11 [1]: 11.3 Fold
Fold Chance, CITED2 [1]: 6.43 Fold
Fold Chance, ELK1 [1]: 3.69 Fold
Fold Chance, FN1 [1]: 5.12 Fold
Fold Chance, FZD6 [1]: 22.4 Fold
Fold Chance, ITGA6 [1]: 4.46 Fold
Fold Chance, ITGAE [1]: 3.68 Fold
Fold Chance, PECAM1 [1]: 4.29 Fold
Fold Chance, SMAD3 [1]: 3.07 Fold
Fold Chance, TNC [1]: 3.13 Fold
Fold Chance, WNT4 [1]: 3.07 Fold
Fold Chance, WNT7a [1]: 5.81 Fold
Fold Chance, YAP1 (Yes-associated protein 1) [1]: 8.61 Fold

FG-3019: monoclonal antibody targeting CCN2
Ang II-induced fibrosis (skin thickness, collagen deposition, number of αSMA-expressing myofibroblasts) (CCN2): mitigated

B1: rhCCN3: recombinant human CCN3 (protein, UniProt P48745 32-357, looked up)
CCN family member 3: TQRCPPQCPGRCPATPPTCAPGVRAVLDGCSCCLVCARQRGESCSDLEPCDESSGLYCDRSADPSNQTGICTAVEGDNCVFDGVIYRSGEKFQPSCKFQCTCRDGQIGCVPRCQLDVLLPEPNCPAPRKVEVPGECCEKWICGPDEEDSLGGLTLAAYRPEATLGVEVSDSSVNCIEQTTEWTACSKSCGMGFSTRVTNRNRQCEMLKQTRLCMVRPCEQEPEQPTDKKGKKCLRTKKSLKAIHLQFKNCTSLHTYKPRFCGVCSDGRCCTPHNTKTIQAEFQCSPGQIVKKPVMVIGTCTCHTNCPKNNEAFLQELELKTTRGKM
fibrosis in a mouse model of diabetic nephropathy [2]: block and reverse fibrosis
